# Data taken from EP0061157A1, “2-Benzoylamino substituted benzylamine derivative and a process for preparation thereof” (Hokuriku Pharmaceutical Co.,Ltd, priority 1981, dated 1982).
# Structures can show the parent of a compound that is named as a salt. Marks after values point to notes of the source that are not given here.
# Experiments:
# [1] = system: tracheal secretory cells; experiment: Effect on the secretory activity of the tracheal secretory cells (isolated tracheal strips, AB/PAS staining, A^IWR); assay type: cell-based, dogs; conditions: for Acinar Inner Diameter of Submucosal Gland to Wall Ratio (A^IWR): dog tracheal strips incubated 30 minutes, control 5.0 x 10^-2; for activation at 10 µM / activation at 1 µM / activation at 0.1 µM: Canis lupus familiaris, 0.5 h, relative to control, read-out: Increasing Rate in A^IWR (%)
# Description: Experiments were performed following the method of Yanaura et al. (Nippon Yakurigaku Zasshi, 77, 559 - 568 (1981)). Male mongrel dogs weighing 10 to 12 kg were anesthetized with sodium pentobarbital (30 mg/kg, i.v.). The trachea was quickly excised about 10 cm long and rapidly […] to a Hanks' solution (95% 02 - 5% CO2, 37 + 1° ). Connective tissues around were removed and the trachea was cut into strips about 2 cm long. The tracheal strips were preincubated for 30 minutes in Hanks' solution, and then drugs were added to the solution and the mixtures were further incubated for 30 minutes. The tracheal strips were then fixed with a 10% formaldehyde isotonic solution followed by dehydrating in a series of graded ethanol concentrations and paraffinembedding in a conventional manner. Sections 4 µm thick were cut with a Jung type microtome and stained with alcian blue (pH 2.5) - periodic acid Schiff (AB (pH 2.5)/PAS). The specimens were studied by the optical microscopic observation with the effects of drugs on the secretory activities of the tracheal secretory cells and on the dissolution of acid glycoprotein in submucosal glandular cells of the tracheal. A thickness between basement membrance and cartilage (thickness of […]; wall is referred to as "W"), and acinar inner diameter of submucosal gland (A^I) were measured. Then, acinar inner diameter of submucosal gland to wall ratio (A^IWR) was calculated. Increase of A^IWR reflects enhancement of the secretory activity in submucosal gland. If test drug has a significant increase in A^IWR, it has a respiratory tract fluid (RTF) - increasing effect.
# [2] = system: acid glycoprotein in submucosal glandular cells of the trachea; experiment: Effect on the dissolution of acid glycoprotein in submucosal glandular cells of the trachea (isolated tracheal strips, AB/PAS staining); assay type: cell-based, dogs; conditions: for Ratio of Glandular Cells Containing Acid Glycoprotein to Total Glandular Cells (%): control 72.4; for EC50: Canis lupus familiaris, dose required for decreasing acid glycoprotein by 50%, calculated from Table III data, read-out: ED50 (the source's name); for Potency Ratio: from ED50, dose of reference drug 1 made 1
# Description: Experiments were performed following the method of Yanaura et al. (Nippon Yakurigaku Zasshi, 77, 559 - 568 (1981)). Male mongrel dogs weighing 10 to 12 kg were anesthetized with sodium pentobarbital (30 mg/kg, i.v.). The trachea was quickly excised about 10 cm long and rapidly […] to a Hanks' solution (95% 02 - 5% CO2, 37 + 1° ). Connective tissues around were removed and the trachea was cut into strips about 2 cm long. The tracheal strips were preincubated for 30 minutes in Hanks' solution, and then drugs were added to the solution and the mixtures were further incubated for 30 minutes. The tracheal strips were then fixed with a 10% formaldehyde isotonic solution followed by dehydrating in a series of graded ethanol concentrations and paraffinembedding in a conventional manner. Sections 4 µm thick were cut with a Jung type microtome and stained with alcian blue (pH 2.5) - periodic acid Schiff (AB (pH 2.5)/PAS). The specimens were studied by the optical microscopic observation with the effects of drugs on the secretory activities of the tracheal secretory cells and on the dissolution of acid glycoprotein in submucosal glandular cells of the tracheal. As a tracheal mucus dissolution activity, an effect on the dissolution of acid glycoprotein in submucosal glandular cells was observed. In double staining with AB (pH 2.5)/PAS, submucosal glandular cells containing much acid glycoprotein were strongly stained blue because of the reaction with AB. When acid glycoprotein in glandular cells is dissolved and its acid groups were lost, it is stained with PAS instead of AB. Consequently, submucosal glandular cells turned to red from blue in color. The ratio of blue glandular cells to total glandular cells was observed, and the effect on the dissolution of acid glycoprotein was estimated by decrease in the ratio. Based on the above data, a dose of each of the compounds tested required for decreasing acid glycoprotein by 50% (ED50) was calculated. Further, a potency ratio was determined when the dose of reference drug 1 was made 1.
# [3] = Acute toxicity test; conditions: mouse, in vivo, mice, Litchfield-Wilcoxon, dead animals within 7 days
# Description: Male mice of ddy-strain weighing 20 to 25 g were used. Drugs were administered orally and intraperitoneally to 10 mice in each group. LD50 was calculated by the Litchfield-Wilcoxon method from dead animals within 7 days.
# [4] = compared with reference drugs 1 and 2
Structure (SMILES),Acinar Inner Diameter of Submucosal Gland to Wall Ratio (A^IWR) ([1]; 1 x 10^-5M),Acinar Inner Diameter of Submucosal Gland to Wall Ratio (A^IWR) ([1]; 1 x 10^-6M),Acinar Inner Diameter of Submucosal Gland to Wall Ratio (A^IWR) ([1]; 1 x 10^-7M),activation at 10 µM ([1]; 1 x 10^-5M),activation at 1 µM ([1]; 1 x 10^-6M),activation at 0.1 µM ([1]; 1 x 10^-7M),Ratio of Glandular Cells Containing Acid Glycoprotein to Total Glandular Cells (%) ([2]; 1 x 10^-5 M),Ratio of Glandular Cells Containing Acid Glycoprotein to Total Glandular Cells (%) ([2]; 1 x 10^-6 M),Ratio of Glandular Cells Containing Acid Glycoprotein to Total Glandular Cells (%) ([2]; 1 x 10^-7 M),EC50 [2],"LD50 at 168 h ([3]; ip, I.P.)","LD50 at 168 h ([3]; po, P.O.)",Potency Ratio [2],"enhancement in A^IWR, times as strong as that of reference drugs 1 and 2 [1, 4]","mucolytic activity (dissolution of acid glycoprotein), times stronger than that of reference drugs 1 and 2 [2, 4]"
"COc1cc(C(=O)Nc2c(Br)cc(Br)cc2CN(C)C2CCCCC2)ccc1OC(C)=O [Reference Drug 1, 2-(4-Acetoxy-3-methoxybenzoylamino)-3.5-dibromo-N-cyclohexyl-N-methylbenzylamine hydrochloride]",6.5 x 10^-2**,6.2 x 10^-2*,5.3 x 10^-2,30%,24%,6%,23.8** %,46.8** %,71.0%,2.5 µM,> 4000 mg/kg,> 12000 mg/kg,–,–,–
"CN(Cc1cc(Br)cc(Br)c1N)C1CCCCC1.Cl [Reference Drug 2, 2-Amino-3,5-dibromo-N-cyclohexyl-N-methylbenzylamine hydrochloride]",6.2 x 10^-2*,5.6 x 10^-2,5.2 x 10^-2,24%,12%,4%,17.5** %,30.0** %,66.2%,1.3 µM,2320 mg/kg,9000 mg/kg,1.92,–,–
"COc1cc(C(=O)Nc2c(Br)cc(Br)cc2CN(C)C2CCCCC2)ccc1O.Cl [Compound of This Invention, 2-(4-Hydroxy-3-methoxybenzoylamino)-3,5-dibromo-N-cyclohexyl-N-methylbenzylamine hydrochloride]",7.3 x 10^-2**,7.1 x 10^-2**,6.1 x 10^-2*,46%,42%,22%,10.6** %,21.6** %,42.0** %,0.23 µM,> 4000 mg/kg,> 12000 mg/kg,10.87,about 10 times,10 times
